{
  "source": "patent US20250382589A1",
  "about": "“SYNTHETIC OPERONS FOR THE PRODUCTION OF 2-MERCAPTOETHANE SULFONATE (COENZYME M) AND METHODS OF USING THE SAME” (priority 2024, published 2025)",
  "key": {"[1]": {"system": "E. coli K-12 wild-type and ΔtauD", "type": "cell-based, Escherichia coli", "conditions": "for growth when plated with 2 mM: 2 mM on plates", "method": "Uptake of exogenous CoM by E. coli. To determine whether E. coli could catabolize CoM, wild-type (NB506) and ΔtauD (NB510) E. coli K-12 strains were tested for the ability to use CoM, cysteine, and taurine as sole sulfur source on M9 minimal medium lacking sulfur (—S) agar plates after washing to reduce nutrient carryover. E. coli strains were streaked on LB agar (1.5%) plates and used to inoculate 3 mL defined medium (Table 7) then incubated at 35° C. (16 hours, 215 rpm). Cells from 100 μL of each culture was harvested by centrifugation at 5,000×g for 3 minutes. Cells were washed three times and resuspended in 1 mL phosphate buffered saline (137 mM NaCl, 2.7 mM KCl, 10 mM Na2HPO4, 1.8 mM KH2PO4). […] Washed cultures were streaked on each agar plate and incubated at 35° C. for 63 hours before photographing.\nWe assessed which catabolic pathways could be involved in a hypothetical digestion of CoM by E. coli. […] If this was the case, then the antioxidant effect of CoM may be stronger in the ΔtauD strain when compared to the wild-type strain."}, "wild-type E. coli K12": {"system": "wild-type E. coli K12", "experiment": "Oxidative stress assay after preincubation with CoM (cumene hydroperoxide)", "type": "cell-based, Escherichia coli", "excerpt": "After having established that E. coli can use CoM as a sulfur source when grown on sulfur-free media, we tested if exogenously supplied CoM could mitigate oxidative stress. […] Protection from oxidative stress remained consistent as the concentration of CuHO2 increased (FIG. 19b). Exponential and logarithmic regression analyses were applied to the lag times of −CoM and +CoM cultures under CuHO2 stress (FIG. 33). These regression curves and their associated equations calculate that the lag time for +CoM E. coli subjected to 65 μM CuHO2 is equivalent to the lag time of −CoM E. coli subjected to ˜50 μM CuHO2."}, "E. coli K-12 ΔtauD [2]": {"system": "E. coli K-12 ΔtauD", "experiment": "Oxidative stress assay after preincubation with CoM (cumene hydroperoxide)"}, "E. coli K-12 ΔtauD [3]": {"system": "E. coli K-12 ΔtauD", "experiment": "Chronic oxidative stress assay (cumene hydroperoxide, 96-well growth)", "type": "cell-based, Escherichia coli", "conditions": "taurine supplied", "method": "Chronic oxidative stress assay. Cultures were prepared according to the procedure outlined in the Acute Stress Assay method above. Cultures were normalized to 0.1 OD600 and 4.5 mL defined medium was inoculated (1:10) and gently mixed. Cultures (148 μL) were dispensed into each well of a sterile 96-well plate. 2 μL of either H2O or […] CuHO2 was added to designated wells.\nObserved increases in the doubling times of com^syn expressing cells are expected as these cultures are being tasked with recombinantly producing enzymes which the vector-only control carrying cells are not (FIG. 8d).\nAs CoM is a thiol with proposed antioxidant qualities, we tested the ability of operon 3 to protect E. coli from oxidative stress. ΔtauD K-12 E. coli were made kanamycin sensitive through the use of the pCP20 plasmid and given a T7 Polymerase using a λDE3 Lysogenization Kit (Novagen). […] Expression of operon 3 was induced for 2 hours using 100 μM IPTG and cultures were incubated with 100 μM taurine for 70 minutes before being used as inoculum in a 96 well plate with cumene hydroperoxide. Optical density (OD) measurements at 600 nm were taken every 6 minutes for 17.5 hours using a Tecan Microplate Reader. A Kirby-Bauer assay was developed which examined the zone of clearing around sterile absorption disks dosed with 5 μL 2.45M hydrogen peroxide."}, "E. coli K-12 ΔtauD [4]": {"system": "E. coli K-12 ΔtauD", "experiment": "Acute oxidative stress assay (H2O2 disks, zone of clearing)", "type": "cell-based, Escherichia coli", "conditions": "0.1 mM taurine", "method": "Acute oxidative stress assay. E. coli K-12 ΔtauD (NB510) was transformed using pET24a (vector-only control, VOC) or pCH003 (com^syn) to generate strains NB515 and NB525, respectively, and grown on LB agar (1.5%) plates containing 50 μg/mL kanamycin. Cultures were grown in defined medium with kanamycin at 37° C. (10 hours, 215 rpm) then 6 mL defined medium was inoculated (1:100). This culture was incubated until OD600=0.4-0.5 then induced using 0.1 mM IPTG. After another hour of incubation, the cultures were then split into two aliquots of 2.6 mL each, given either 0.1 mM taurine or H2O, and incubated another hour. LB plates containing 0.1 mM IPTG and 0.1 mM taurine were prepared and warmed for 15 minutes at 37° C. Cultures were normalized to 0.1 OD600 and 1 mL of culture was spread on each plate. […] Zones of clearing were measured using the ImageJ program.(38) […]\nAs CoM is a thiol with proposed antioxidant qualities, we tested the ability of operon 3 to protect E. coli from oxidative stress. ΔtauD K-12 E. coli were made kanamycin sensitive through the use of the pCP20 plasmid and given a T7 Polymerase using a λDE3 Lysogenization Kit (Novagen). […] Optical density (OD) measurements at 600 nm were taken every 6 minutes for 17.5 hours using a Tecan Microplate Reader. […]"}, "[5]": {"system": "CoM synthesis from pyruvate and taurine", "experiment": "CoM biosynthesis assay in E. coli lysate", "type": "biochemical, Escherichia coli", "method": "CoM biosynthesis assay. To improve expression of comF, pCH003 was transformed into BL21 E. coli along with pDB1282, graciously provided by Squire J. Booker (Penn State University).(36) This strain was grown in 25 mL defined medium overnight at 37° C. (250 rpm); this was used to inoculate 975 mL defined medium and continued growth at 37° C. (250 rpm). At OD600=0.3 of the culture was supplemented with 2% L-arabinose, 2 mL 1 M cysteine HCl (2 mM), […] iron (II) sulfate (1 mM), and […] ferric ammonium sulfate (1 mM) then returned to incubation. After 1 hour the culture was induced using 0.1 mM IPTG, incubated for 3 hours, pelleted at 8,000×g (10 minutes, 4° C.), and stored at −80° C. until analysis. A portion of the cell pellet was lysed as described above and the presence of ComF and Tpa was confirmed by immunoblotting using a 8-16% polyacrylamide gel with the initial electrophoresis changed to 50 V (25 minutes) followed by 100 V (105 minutes) and transferred using constant 0.11 A (50 minutes). […] Samples were aspirated into a luer slip tip syringe and filtered through a 0.2 μm, 13 mm diameter polyethersulfone (PES) membrane into fresh amber autosampler vials then stored at 4° C. in the dark until analyzed by high-performance liquid chromatography (HPLC) using an UltiMate 3000 (Thermo Scientific, Waltham, MA). […]"}},
  "note": "Values joined by “and” are separate entries in the source; they are usually repeats but may differ in a detail not shown here. Equal values may be shown once.",
  "data": [
    {"molecule": "O=S(=O)(O)CCS", "note": "[CoM, 2-mercaptoethanesulfonate]", "values": [
      {"measurement": "growth when plated with 2 mM", "setting": "[1]", "value": "no growth defects"},
      {"measurement": "CuHO2 concentration giving the same lag time in −CoM culture", "setting": "wild-type E. coli K12; +CoM at 65 μM CuHO2, regression", "value": "~50 µM and 49.73 µM"},
      {"measurement": "lag time", "setting": "wild-type E. coli K12; +CoM, 65 μM CuHO2", "value": 6.0, "unit": "h"},
      {"measurement": "lag time predicted by exponential regression", "setting": "wild-type E. coli K12; +CoM, 65 μM CuHO2", "value": 6.313, "unit": "h"},
      {"measurement": "CuHO2 mitigated", "setting": "wild-type E. coli K12; from regression of lag times", "value": "~15", "unit": "µM"},
      {"measurement": "lag time", "setting": "wild-type E. coli K12; preincubated with 100 μM CoM (+CoM), 75 μM cumene negative control, time to OD600=0.1", "value": 3.0, "unit": "h"},
      {"measurement": "lag time", "setting": "E. coli K-12 ΔtauD [2]; +CoM, 65 μM CuHO2", "value": 4.7, "unit": "h"},
      {"measurement": "CuHO2 mitigated", "setting": "E. coli K-12 ΔtauD [2]; comparison of lag times", "value": "~20", "unit": "µM"},
      {"measurement": "lag time", "setting": "E. coli K-12 ΔtauD [2]; preincubated with CoM, 75 μM cumene", "value": 3.5, "unit": "h"}
    ]},
    {"molecule": "N[C@@H](CS)C(=O)O", "note": "[Cys, cysteine]", "values": [
      {"measurement": "growth when plated with 2 mM", "setting": "[1]", "value": "no growth defects"}
    ]},
    {"molecule": "NCCS(=O)(=O)O", "note": "[taurine]", "values": [
      {"measurement": "growth when plated with 2 mM", "setting": "[1]", "value": "Inhibitory growth"},
      {"measurement": "growth with the substance as sulfur source", "setting": "[1]; M9 (—S) agar plates, 100 μM", "value": "grew poorly"},
      {"measurement": "lag time of vector-only control cells", "setting": "E. coli K-12 ΔtauD [3]", "value": "lag time increased"},
      {"measurement": "lag time of vector-only control cells", "setting": "E. coli K-12 ΔtauD [3]; listed as SC", "value": "increases"},
      {"measurement": "zone of clearing of Empty Vector strain", "setting": "E. coli K-12 ΔtauD [4]", "value": "increase in the average zone of clearing size"}
    ]},
    {"molecule": "MA3299: coenzyme M synthase (ComF) of Methanosarcina acetivorans, SEQ ID NO: 1 (protein, Methanosarcina acetivorans) MNGALDNTEKPRTIQEIQVKIDAGEAVVLTAEEIGAKVRAGGEIRLEDIDVVTTATRGIMSGTYAVFSFKVSEPDSFVKASKVLLNGVPAIVGPCPNERLGVLDLIVLGTAHSETDSRYGGGHLFRDMVEGKSITVDVTTSVGDFFSVETRLSEMPFARLYATRHAFKNYRAFVNPGKESIKTIFHALPFEGEFRELTFCGCGELNPIQNDPKLETIGIGTRVLINGAEGFVTGQGTRSAPDNPNLTGFADLHDMTPEYMGGFVTSAGPEIVNTWAVPIPVLSREMLENILQLDSQIPLKLVDLAGRLPLCEITYGDVWDNTDLSVKYEPEKCIDCKICCVAEACPMGAVSKGENGAVHNPELCFNCGLCISRCKGEAFSAKLGTVSCAVGGCFRDIKVTLRQSDRARAVKAAEELKAQVLSGKFRLKEPVEKISWRE", "values": [
      {"measurement": "reduction of enzymatic activity", "setting": "[5]; lysate removed from the anaerobic chamber for centrifugation", "value": "~60", "unit": "%"}
    ]},
    {"molecule": "Q9APM5: taurine-pyruvate aminotransferase from Bilophila wadsworthia, SEQ ID NO: 3 (protein, listed as Bilophila wadsworthia) MTYDKAELVALDKKYVWHHLTQHKNFEPAIYVKGEGMRITDIDGKTYLDAVSGGVWTVNVGYGRKEIVDAVAKQMMEMCYFANGIGNVPTIKFSEKLISKMPGMSRVYLSNSGSEANEKAFKIVRQIGQLKHGGKKTGILYRARDYHGTTIGTLSACGQFERKVQYGPFAPGFYEFPDCDVYRSKFGDCADLGVKMAKQLEEVILTVGPDELGAVIVEPMTAGGGILVPPAGYYETIREICDKYELLLIIDEVVCGLGRTGKWFGYQHFNVQPDIVTMAKGVASGYAPISCTVTTEKVFQDFVNDPADTDAYFRDISTFGGCTSGPAAALANIEIIERENLLENCTKMGDRLLEGLKGLMAKHPIIGDVRGKGLFAGIEIVKDRATKEPIAEAVANAMVGAAKQAGVLIGKTSRSFREFNNTLTLCPALIATEADIDEIVAGIDKAFTTVEQKFGL", "values": [
      {"measurement": "catalysis", "setting": "[5]; enzyme alone", "value": "Catalysis was not observed"}
    ]}
  ]
}
